Data set [1] concerns ATGL. The data set can be described thus: Fold change in ATGL by densitometric analysis. The class given is cell-based. To be noted: fold change of ATGL with respect to control, normalized with actin. The protocol:
Densitimetric analysis was performed by image J to calculate the fold change of ATGL with respect to control. The values were normalized with actin.

A short description of a further data set: Kinetic solubility. The class given is physicochemical. To be noted: pH 7.4 phosphate buffer (PBS), aqueous buffer, kinetic from dmso stock, room temperature, 1.0% DMSO. The protocol: PBS sachet was dissolved in 0.9 L of Milli Q water and pH was adjusted to 7.4. Final volume was made up to 1 L with the water and stored at ambient temperature 21-25° C. […] 4 μL from the 50 mM stock solution were added to deep well plate containing 396 μL of pH 7.4 phosphate buffer, mixed and incubated for 24 hours at room temperature with constant mixing at 300 rpm. The plate was sealed well during the incubation process. After incubation, the samples were centrifuged for 20 min at 4000 rpm. The supernatant was analysed by HPLC-UV. The DMSO content in the sample was 1.0%. The final concentration of the compound in deep well plate was 500 μM.

The nature of data set [2]: Lipophilicity assay (octanol/buffer Log D). To be noted: pH 7.4, n-octanol/sodium phosphate buffer. Format: physicochemical. The protocol:
1.56 g NaH2PO4·2H2O was dissolved in 0.5 L water in a 1 L beaker. After adjusting pH to 7.4 using NaOH solution, the volume was made up to 1 L. Equal volumes of sodium phosphate buffer (10 mM, pH 7.4) and n-octanol were added to a separation funnel and mixed thoroughly by shaking and inverting the funnel several times. The two layers were allowed to separate for overnight and then dispensed in two separate glass bottles. 10 mM stock solution was prepared in 100% DMSO and stored at 4° C. 495 μL of organic phase (1-octanol) was added to each well of a 2 mL deep well plate, followed by 495 μL of buffer and 10 μL of test substance was added. The plate was incubated for 3 hrs at room temperature on a plate shaker at 500 rpm. After incubation, the samples were allowed to equilibrate for 20 min and then centrifuged at 4000 rpm for 30 min for complete phase separation and analysed by LC-UV. Log D=Log (area of octanol/area of buffer)

In the next data set the test system is HepG2 cells. In words: Confocal microscopy of lipid droplets in oleate induced HepG2 cells. The class given is cell-based. To be noted: 250 μM oleate induction, 100 nM and 500 nM, 24 hours. The procedure: To select the compounds capable of inhibiting the ubiquitination of ATGL by COP1 by targeting the VP motif, confocal microscopy was performed with the provided molecules. If the compound was effective in inhibiting the interaction, there would have been a reduction in the number of fat droplets in the cells after treatment. […] With this rationale in mind, HepG2 cells were induced to accumulate lipid droplets after treatment with 250 μM of oleate and 10 μM of the specific compounds were added. The potential of the compounds to bring about a reduction in the number of fat droplets was then checked by comparison with oleate induced cells by counting number of droplets of approximately 20 cells from each treatment and calculating the average number of lipid droplets of each cell. The selected compounds were then subjected to dose dependent treatments and the ones which could maintain its potency to reduce fat droplets at lower doses were then selected for western blot analysis. The compound which could reduce the number of fat droplets in the cells were expected to raise the levels of ATGL since they were likely to deter COP1 from ubiquitinating ATGL. This increase was visible only in the protein level and gene expression was likely to remain unchanged since ubiquitination is a […] modification. […]

Data set [3] relates to ATGL. In words: Western blot of ATGL level in primary mouse hepatocytes. The class given is cell-based. To be noted: 10 nM to 500 nM, 24 hours, with respect to control. The protocol: To further strengthen the efficiency of the compound 62, primary hepatocytes were isolated from mice and these compounds were treated in a dose dependent manner for 24 hours. Primary hepatocytes and adipose tissue explants were isolated from mice and subjected to compound treatment for 24 hours at the doses of 10 nM, 20 nM, 50 nM, 100 nM and 500 nM. Post cell harvesting, western blot was carried out with the lysate to check the ATGL level. ATGL and COP1 antibodies were used. Actin served the purpose of a loading control.
Hepatocytes-2-4 months old chow-fed black male mouse (C57b1/6) was sacrificed using chloroform (SRL) and was cleaned with 70% ethanol. […] Blood was drawn from the heart in order to prevent backflow into liver while perfusion. The butterfly cannula was inserted into the PV and 20 ml of HBSS (Hank's Balanced Salt Solution; 5 mM KCl, 0.4 mM KH2PO4, 4 mM NaHCO3, 140 mM NaCl, 0.3 mM Na2HPO4, 6 mM Glucose, HEPES, 0.5 mM MgCl2.6H2O, 0.4 mM MgSO4·7H2O, 0.5 mM EDTA; not containing 1 mM CaCl2)) was allowed to pass through the liver (Perfusion) at a constant flow rate of 3 ml/min, maintained by Masterflex digital peristaltic pump (Cole-Parmer). The IVC was cut as soon as the passage of the buffer through the liver began, so that blood and perfusate from liver was drained through the IVC. The liver blanched and became pale in color upon this treatment. […]

In general, kinetic solubility refers to solubility judged after dilution from a stock solution rather than from solid. Usually logD stands for lipophilicity at a set pH, counting ionised and neutral species. Read a high logD as higher lipophilicity.

Molecules are shown by their SMILES. Converted amounts (≈) assume the structure as drawn.

In the data set on ATGL [1], `COCCn1c(=O)c2cc(NC(=O)Nc3cccc(C(C)=O)c3)ccc2n(CCCN2CCOCC2)c1=O` [Compound 94, 1-(3-acetylphenyl)-3-(3-(2-methoxyethyl)-1-(3-morpholinopropyl)-2,4-dioxo-1,2,3,4-tetrahydroquinazolin-6-yl)urea] gave a Fold change of 0.84. For the same molecule, the kinetic solubility at 24 hours in “Kinetic solubility” was determined as 89.9 µg/mL (≈ 172 µM). Further, in data set [2], the logD was found to be 0.97.

Turning to `COCCn1c(=O)[nH]c2ccc(NC(=O)Nc3cccc(C(C)=O)c3)cc2c1=O` [Compound 5, 1-(3-acetylphenyl)-3-(3-(2-methoxyethyl)-2,4-dioxo-1,2,3,4-tetrahydroquinazolin-6-yl)urea], in the data set on ATGL [1], the Fold change is reported as 1.44. In addition, the solubility (kinetic) at 24 hours in the data set “Kinetic solubility” was 0.8 µg/mL (≈ 2.02 µM). Besides, the “LogD @ pH 7.4” value in data set [2] was 2.17.

In the data set with ATGL [1], `COCCn1c(=O)c2cc(NC(=O)Nc3cccc(C(C)=O)c3)ccc2n(CCN2CCCCC2)c1=O` [Compound 62, 1-(3-acetylphenyl)-3-(3-(2-methoxyethyl)-2,4-dioxo-1-(2-(piperidin-1-yl)ethyl)-1,2,3,4-tetrahydroquinazolin-6-yl)urea] had a Fold change of 1.55. In addition, in the data set “Kinetic solubility”, the solubility (kinetic) at 24 hours worked out at 116 µg/mL (≈ 228 µM). Moreover, the “LogD @ pH 7.4” value in data set [2] was 2.78. In addition, the “number of lipid droplets” value in the data set with HepG2 cells is given as “decrease in the number of lipid droplets”. Further, the “ATGL level (Western Blot)” value with ATGL [3] is “increased ATGL level”.
